In paper PMC4492764, “Evaluation of biomarkers for in vitro prediction of drug-induced nephrotoxicity: comparison of HK-2, immortalized human proximal tubule epithelial, and primary cultures of human proximal tubular cells” (Pharmacology Research & Perspectives, 2015):
Counter-ions that a name gives are not always drawn.

Tests used:
KIM-1 = settings: published in vivo data; ref Vaidya et al. [2006]; cited from earlier work
M-CSF mRNA = M-CSF mRNA qRT-PCR in hRPTECs; format: cell-based, human; set-up: key to Upregulation of M-CSF hRPTECs R: +: statistically significant increase; −: no significant increase; settings: for M-CSF mRNA levels in hRPTECs: 72 h (Fig.4C); for Upregulation of M-CSF hRPTECs R: mRNA levels, 72 h time point
Method: Hs00273334_m1), Lcn2 (NGAL; Hs01008571_m1), and Csf1 (M-CSF; Hs00174164_m1). All probes span an exon-exon junction. The real-time quantitative reverse transcription PCR (qRT-PCR) was performed in a 10 μl final reaction mixture using a ViiA 7TM system (Applied Biosystems®, Sydney, NSW, Australia) based on the following thermo cycling conditions: 10 min at 95°C for one cycle, 15 sec at 95°C, 60 sec at 60°C for 40 cycles. The ViiA 7TM software was used for data analysis with Hprt1 expression used for normalization. All assays were performed at least three times, with at least two technical replicates in each assay.

M-CSF = test system: M-CSF; set-up: key: +: statistically significant increase; −: no significant increase; settings: published in vivo data; ref Razzaque and Taguchi [2002]; Menke et al. [2009]; cited from earlier work
[1] = Resazurin cytotoxicity assay in hRPTECs; format: cell-based, human; settings: human, hRPTECs (passage 2); 72 h incubation; Mean ± Standard deviation, n = 3
Method: (§1) For the MTT assay, the medium was then removed, the dried crystals were resuspended in 60 μL of Dimethyl sulfoxide (DMSO), and the absorbance was read at 570 nm. For the resazurin assay, the fluorescence intensity was read using a PolarStar Omega plate reader (BMG Labtech; Mornington VIC, Australia) at excitation/emission 560/590 nm. All assays were performed at least three times. […] La Jolla, CA). Both MTT and resazurin assays were performed three times, with two technical replicates in each assay.

[2] = MTT cytotoxicity assay in HK-2 cells; format: cell-based, human; settings: human, HK-2 cells; 72 h incubation; Mean ± Standard deviation, n = 3
Method: as §1

[3] = MTT cytotoxicity assay in hRPTECs; format: cell-based, human; settings: human, hRPTECs (passage 2); 72 h incubation; Mean ± Standard deviation, n = 3
Method: as §1

HK-2 cells [4] = experiment: Resazurin cytotoxicity assay in HK-2 cells; format: cell-based, human
Method: as §1

[5] = Resazurin cytotoxicity assay in HK-2 cells; format: cell-based, human; settings: human, HK-2 cells; 72 h incubation; Mean ± Standard deviation, n = 3
Method: as §1

HK-2 cells [6] = experiment: MTT cytotoxicity assay in HK-2 cells; format: cell-based, human; settings: 72 h incubation; Mean ± Standard deviation, n = 3
Method: as §1

hRPTECs = experiment: MTT cytotoxicity assay in hRPTECs; format: cell-based, human; settings: 72 h incubation; Mean ± Standard deviation, n = 3
Method: as §1

Molecule	Upregulation of KIM-1 in vivo (KIM-1)	M-CSF mRNA levels in hRPTECs (M-CSF mRNA)	Upregulation of M-CSF hRPTECs R (M-CSF mRNA)	Upregulation of M-CSF in vivo (M-CSF)	CC50 at 72 h [1]	CC50 at 72 h [2]	CC50 at 72 h [3]	toxicity in resazurin assay at highest concentration tested (HK-2 cells [4]; 72 h, highest concentrations gentamicin 1 mmol/L, CsA 50 μmol/L, cell type not given)	CC50 at 72 h [5]	CC50 (HK-2 cells [6])	CC50 (hRPTECs)	CC50 (HK-2 cells [4]; 72 h incubation, Mean ± Standard deviation, n = 3)
N.N.[Cl][Pt][Cl] [Cisplatin, cisplatin]	>5-fold (Vaidya et al. [2006])	significant results	+	+ (Razzaque and Taguchi [2002]; Menke et al. [2009])	–	–	–	–	–	–	–	–
CNC(C)C1CCC(N)C(OC2C(N)CC(N)C(OC3OCC(C)(O)C(NC)C3O)C2O)O1 (centres unmarked) [Gentamicin, gentamicin sulfate]	–	–	–	–	> 1 mM	> 1 mM	> 1 mM	no toxicity	> 1 mM	–	–	–
Colistin sulfate	–	significant results	+	–	–	–	–	–	–	> 0.3 mM	> 0.3 mM	> 0.3 mM
